This is an account of results in US4971990A, “Phenoxyethylamine derivatives, for preparing the same and composition for exhibiting excellent α1 -blocking activity containing the same” (Hokuriku Pharmaceutical Co., Ltd., priority 1988, dated 1990).

The test system of one assay is α1-adrenoceptor. The assay is described as follows: α1-adrenoceptor blocking action (noradrenaline concentration-response in isolated thoracic aorta). Type of assay: cell-based, rabbit (Japanese white, male). The settings on record: for pA2 value: negative logarithm of KB (M), noradrenaline as agonist, rabbit thoracic aorta, 30 min exposure, 10^-6 M propranolol; for α1-adrenoceptor selectivity 10^(pA2-pKi): α1-adrenoceptors (pA2, rabbit aorta) compared to dopamine D2-receptors (pKi, rat striatum). The protocol: α1 -adrenoceptor blocking action
Method: The thoracic aorta were isolated from male rabbits (Japanese white, about 2.5 kg b.w.) and helically cut. The preparations were suspended in Krebs-Henseleit solution maintained at 37° C. and aerated with a gas mixture of 95%O2 +5%CO2. Responses to drugs were recorded isometrically under a tension of 2 g. After an equilibration period of about 60 min., cumulative concentration-response curves for noradrenaline were constructed. The preparations were exposed to the test compounds for 30 min. before rechallenge with noradrenaline. The dose ratio was obtained from the ratio of an ED50 value (the concentration needs to produce the half maximum response) of noradrenaline in the presence and absence of the test compound. The test compounds dissociation constants (KB) were determined according to the following equation.
KB =[concentration of the test compound (M)/(dose ratio-1)]
The pA2 values were then expressed as the negative logarithm of KB.
This value represents the blocking activity of a test compound to α1 -adrenoceptors. In these experimental periods, 10^-6 M propranolol was treated to block β-adrenoceptors. The results shown in Table 1-a indicate that the α1 -adrenoceptor blocking activites of the test compounds are almost the as same as that of YM-12617.
The selectivity of the test compound to α1 -adrenoceptors compared to dopamine D2 -receptors is determined according to the following equation.
α1 -adrenoceptor selectivity =10^(pA 2^-pK i^)

The target in the next assay is T1, dopamine D2-receptor (Rattus norvegicus, UniProt P61169).
T1 construct: The homogenates were centrifuged and synaptic membrane fractions were obtained; from tissue; host or cells: brain striatum, synaptic membrane fraction, male Wistar rat
The assay is described as follows: Dopamine D2-receptor radioligand-binding assay (3H-spiperone, brain striatum membranes). More on the design: species or system rat (male Wistar). The protocol: Dopamine D2 -receptor radioligand-binding assay
Method: These experiments were done according to the method of Coward, D et al. (Naunyn-Schmiedeberg's Archives of Pharmacology (1987)335, 115-122). Briefly, brain striatum were isolated from male Wistar rats (about 200 g b.w.). The tissues were homogenaized in ice-cold 50 mM Tris buffer (pH7.4) with a polytron and centrifuged at 50,000 g for 15 min.. The pellets were homogenaized in the same Tris buffer and incubated for 5 min. at 37° C. The homogenates were centrifuged and synaptic membrane fractions were obtained. The membrane fractions were incubated with ^3 H-spiperone and various concentrations of the test compounds for 50 min. at 25° C. The reaction was terminated by filtration on a GF/B glass filter under vacuum. The radioactivity on the filter was measured using a liquid scintillation counter. The test compounds' dissociation constants (Ki) were determined according to the following equation.
IC50 : the test compound concentration needed to inhibit 50% of ^3 H-spiperone binding calculated by pseudo-Hill plot.
L : ^3 H-spiperone concentration
Kd : ^3 H-spiperone dissociation constant calculated by Scatchard plot.
The pKi values was then expressed as the negative logarithum of Ki. This value represents an affinity of the test compound to dopamine D2 -receptors. Non-specific binding of ^3 H-spiperone was determined in the presence of 10^-5 M sulpiride. Protein concentration was determined by the method of Lowry.

The mark [1] stands for this setting: 3H-spiperone, rat striatum synaptic membranes, 50 min at 25° C., non-specific binding with 10^-5 M sulpiride, read-out: pKi value (converted).

Counter-ions that a name gives are not always drawn. Like-named read-outs stand apart in the source and are kept apart here.

T1 sequence (P61169 whole entry): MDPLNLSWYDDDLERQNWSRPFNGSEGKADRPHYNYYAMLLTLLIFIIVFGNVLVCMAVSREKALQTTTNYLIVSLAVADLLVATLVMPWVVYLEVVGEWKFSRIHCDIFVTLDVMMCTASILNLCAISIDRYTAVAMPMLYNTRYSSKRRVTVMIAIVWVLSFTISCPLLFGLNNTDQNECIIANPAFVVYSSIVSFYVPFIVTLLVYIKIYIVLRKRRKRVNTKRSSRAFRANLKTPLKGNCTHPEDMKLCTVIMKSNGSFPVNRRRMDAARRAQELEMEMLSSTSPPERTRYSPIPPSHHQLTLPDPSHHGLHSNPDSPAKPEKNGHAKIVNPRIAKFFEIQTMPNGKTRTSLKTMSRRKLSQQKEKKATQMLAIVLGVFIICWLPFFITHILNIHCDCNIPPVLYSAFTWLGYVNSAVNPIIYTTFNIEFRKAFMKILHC

As to `CCNS(=O)(=O)c1cc(CC(C)NCCOc2cc(F)ccc2OC)ccc1OC` (stereo not drawn) [Example 21, N-Ethyl-5-[2-(5-fluoro-2-methoxyphenoxy)ethylamino]propyl]-2-methoxy-benzenesulfonamide oxalate], in the assay on α1-adrenoceptor, the pA2 value was 9.14. The Ki on dopamine D2-receptor was 93.3 nM.

In the case of `CCOc1ccccc1OCCNC(C)Cc1ccc(OC)c(S(N)(=O)=O)c1` (racemic) [YM-12617, 5-[2-[[2-(2-ethoxyphenoxy)ethyl]amino]propyl]-2-methoxybenzene-sulfonamidehydrochloride, reference compound], in the assay with α1-adrenoceptor, the pA2 value worked out at 9.38 and the “α1-adrenoceptor selectivity 10^(pA2-pKi)” value turned out to be 50. The Ki at dopamine D2-receptor (setting [1]) was 20.9 nM.

For the molecule `CNS(=O)(=O)c1cc(CC(C)NCCOc2cc(F)ccc2OC)ccc1OC.O=C(O)C(=O)O` (stereo not drawn) [Example 9, 5-[2-[2-(5-Fluoro-2-methoxyphenoxy)ethylamino]propyl]-2-methoxy-N-methylbenzenesulfonamide oxalate], the pA2 value in the assay with α1-adrenoceptor is recorded as 9.34. The molecule also gave a Ki on dopamine D2-receptor of 93.3 nM.

With `CCOc1ccc(F)cc1OCCNC(C)Cc1ccc(OC)c(S(N)(=O)=O)c1.Cl` (stereo not drawn) [Example 14, 5-[2-[2-(2-Ethoxy-5-fluorophenoxy)ethylamino]propyl]-2-methoxybenzenesulfonamide hydrochloride], in the assay with α1-adrenoceptor, the pA2 value is reported as 9.69 and the “α1-adrenoceptor selectivity 10^(pA2-pKi)” value was determined as 115. This molecule showed a Ki at dopamine D2-receptor of 23.4 nM.

With `COc1ccc(F)cc1OCCNC(C)Cc1ccc(OC)c(S(=O)(=O)N(C)C)c1` (stereo not drawn) [Example 10, 5-[2-[2-(5-Fluoro-2-methoxyphenoxy)ethylamino]propy]-2-methoxy-N,N-dimethylbenzenesulfonamide oxalate], in the assay on α1-adrenoceptor, the pA2 value is 9.42 and the “α1-adrenoceptor selectivity 10^(pA2-pKi)” value stood at 288. The Ki at dopamine D2-receptor (setting [1]) is 110 nM.

For the molecule `CCOc1ccc(CC(C)NCCOc2cc(F)ccc2OC)cc1S(N)(=O)=O` (stereo not drawn) [Example 2, 2-Ethoxy-5-[2-[2-(5-fluoro-2-methoxyphenoxy)ethylamino]propyl] benzenesulfonamide hydrochloride], in the assay with α1-adrenoceptor, the pA2 value came to 9.05 and the “α1-adrenoceptor selectivity 10^(pA2-pKi)” value is on record as 186. Moreover, the Ki at dopamine D2-receptor (setting [1]) is 166 nM.

As to `CCCCNS(=O)(=O)c1cc(CC(C)NCCOc2cc(F)ccc2OC)ccc1OC.O=C(O)C(=O)O` (stereo not drawn) [Example 22, N-Butyl-5-[2-[2-(5-fluoro-2-methoxyphenoxy)ethylamino]propyl]-2-methoxybenzenesulfonamide oxalate], the pA2 value in the assay with α1-adrenoceptor is given as 9.08. At dopamine D2-receptor, this molecule showed a Ki of 77.6 nM.

As for `COc1ccc(F)cc1OCCNC(C)Cc1ccc(OC)c(S(N)(=O)=O)c1` (stereo not drawn) [Example 1, 5-[2-[2-(5-Fluoro-2-methoxyphenoxy)ehtylamino]propyl]-2-methoxybenzenesulfonamide hydrochloride], in the assay on α1-adrenoceptor, the pA2 value came out at 9.45 and the “α1-adrenoceptor selectivity 10^(pA2-pKi)” value was 339. On dopamine D2-receptor (setting [1]), the Ki is 120 nM.

For `CCOc1ccc(F)cc1OCCNC(C)Cc1ccc(OCC)c(S(N)(=O)=O)c1` (stereo not drawn) [Example 5, 2-Ethoxy-5-[2-[2-(2-ethoxy-5-fluorophenoxy)ethylamino]propyl] benzenesulfonamide hydrochloride], in the assay on α1-adrenoceptor, the pA2 value worked out at 8.98 and the “α1-adrenoceptor selectivity 10^(pA2-pKi)” value was 79. This molecule showed a Ki on dopamine D2-receptor of 83.2 nM.

For `COc1ccc(F)cc1OCCN[C@H](C)Cc1ccc(OC)c(S(N)(=O)=O)c1.Cl` [Example 34, R-(-)-5-[2-[2-(5-Fluoro-2-methoxyphenoxy)-ethylamino]propyl]-2-methoxybenzenesulfonamide hydrochloride], in the assay with α1-adrenoceptor, the pA2 value was found to be 9.77 and the “α1-adrenoceptor selectivity 10^(pA2-pKi)” value stood at 437. This molecule had a Ki at dopamine D2-receptor of 74.1 nM.

Consider `COc1ccc(F)cc1OCCNC(C)Cc1ccc(OC)c(S(=O)(=O)N2CCCC2)c1.O=C(O)C(=O)O` (stereo not drawn) [Example 11, 1-[[5-[2-[2-(5-Fluoro-2-methoxyphenoxy)ethylamino]propyl]-2methoxyphenyl]sulfonyl]pyrrolidine oxalate], for which the pA2 value with α1-adrenoceptor stood at 9.33. The Ki on dopamine D2-receptor is 64.6 nM.

Consider `CCOc1ccc(F)cc1OCCNC(C)Cc1ccc(OC)c(S(=O)(=O)N(C)C)c1.O=C(O)C(=O)O` (stereo not drawn) [Example 15, 5-[2-[2-(2-Ethoxy-5-fluorophenoxy)ethylamino]propyl]-2-methoxy-N,N-dimethylbenzenesulfonamide oxalate], for which, in the assay with α1-adrenoceptor, the pA2 value is 9.48 and the “α1-adrenoceptor selectivity 10^(pA2-pKi)” value was found to be 78. For the same molecule, the Ki on dopamine D2-receptor is 25.7 nM.

`COc1ccc(F)cc1OCCNC(C)Cc1ccc(OC)c(S(=O)(=O)N2CCCCC2)c1` (stereo not drawn) [Example 12, 1-[[5-[2-[2-(5-Fluoro-2-methoxyphenoxy)ethylamino]propyl]-2-methoxyphenyl]sulfonyl]-methoxyphenyl]sulfonyl]piperidine oxalate] had a pA2 value in the assay on α1-adrenoceptor of 9.10. The molecule further showed a Ki on dopamine D2-receptor of 89.1 nM.

The molecule `CCCNS(=O)(=O)c1cc(CC(C)NCCOc2cc(F)ccc2OC)ccc1OC` (stereo not drawn) [Example 20, 5-[2[2-(5-Fluoro-2-methoxyphenoxy)ethylamino]propyl]-2-methoxy-N-propylbenzenesulfonamide 1/2fumarate] came in with a pA2 value with α1-adrenoceptor of 9.10. In addition, the Ki on dopamine D2-receptor (setting [1]) is 129 nM.
